Data: patent publication US20180148418A1, “AMIDO-SUBSTITUTED CYCLOHEXANE DERIVATIVES” (Bayer Pharma Aktiengesellschaft, priority 2015, published 2018)

Legend:
[1] = tested on: wildtype Wnt signaling cascade; assay: HEK293 TOP assay (Super TopFlash luciferase reporter, Wnt-3a stimulated); type: cell-based; settings: HEK293 TOP reporter cells, Wnt3a at EC50, 16 hours
In short: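 Compound series (50 μM down to 15 nM, 3.16-fold) diluted from DMSO 50-fold into CAFTY buffer, pH 7.4, 2 mM Ca^2+, 0.01% BSA, applied to Wnt-3a-stimulated HEK293 TopFlash and FOP reporter lines in parallel. Cells seeded 10000/well 24 h before; luciferase signal measured.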

[2] = tested on: HEK293 cells cotransfected with the FOP control vector; assay: HEK293 FOP assay (control reporter with non-functional TCF elements); type: cell-based; settings: 16 hours
In short: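 Compound series from 50 μM down to 15 nM, prediluted in DMSO then 50-fold into CAFTY buffer (pH 7.4, 2 mM Ca2+, 0.01% BSA), tested alongside TOP cells on a Geneticin-selected HEK293 FOP line whose TCF elements are replaced by a random sequence; recombinant human Wnt-3a applied at 2500-5 ng/ml.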

TNKS2 = molecular target: T1, TNKS2 (Homo sapiens, UniProt Q9H2K2); assay: TNKS2 Assay B (auto-parsylation, [3H]-NAD+ SPA); type: biochemical; settings: 6 nM TNKS2, auto-parsylation, over night at room temperature
T1 construct: purchased BPS Bioscience, San Diego, USA 80572 (TNKS2 Histone Ribosylation Assay Kit)
T1 sequence (Q9H2K2 1-1166): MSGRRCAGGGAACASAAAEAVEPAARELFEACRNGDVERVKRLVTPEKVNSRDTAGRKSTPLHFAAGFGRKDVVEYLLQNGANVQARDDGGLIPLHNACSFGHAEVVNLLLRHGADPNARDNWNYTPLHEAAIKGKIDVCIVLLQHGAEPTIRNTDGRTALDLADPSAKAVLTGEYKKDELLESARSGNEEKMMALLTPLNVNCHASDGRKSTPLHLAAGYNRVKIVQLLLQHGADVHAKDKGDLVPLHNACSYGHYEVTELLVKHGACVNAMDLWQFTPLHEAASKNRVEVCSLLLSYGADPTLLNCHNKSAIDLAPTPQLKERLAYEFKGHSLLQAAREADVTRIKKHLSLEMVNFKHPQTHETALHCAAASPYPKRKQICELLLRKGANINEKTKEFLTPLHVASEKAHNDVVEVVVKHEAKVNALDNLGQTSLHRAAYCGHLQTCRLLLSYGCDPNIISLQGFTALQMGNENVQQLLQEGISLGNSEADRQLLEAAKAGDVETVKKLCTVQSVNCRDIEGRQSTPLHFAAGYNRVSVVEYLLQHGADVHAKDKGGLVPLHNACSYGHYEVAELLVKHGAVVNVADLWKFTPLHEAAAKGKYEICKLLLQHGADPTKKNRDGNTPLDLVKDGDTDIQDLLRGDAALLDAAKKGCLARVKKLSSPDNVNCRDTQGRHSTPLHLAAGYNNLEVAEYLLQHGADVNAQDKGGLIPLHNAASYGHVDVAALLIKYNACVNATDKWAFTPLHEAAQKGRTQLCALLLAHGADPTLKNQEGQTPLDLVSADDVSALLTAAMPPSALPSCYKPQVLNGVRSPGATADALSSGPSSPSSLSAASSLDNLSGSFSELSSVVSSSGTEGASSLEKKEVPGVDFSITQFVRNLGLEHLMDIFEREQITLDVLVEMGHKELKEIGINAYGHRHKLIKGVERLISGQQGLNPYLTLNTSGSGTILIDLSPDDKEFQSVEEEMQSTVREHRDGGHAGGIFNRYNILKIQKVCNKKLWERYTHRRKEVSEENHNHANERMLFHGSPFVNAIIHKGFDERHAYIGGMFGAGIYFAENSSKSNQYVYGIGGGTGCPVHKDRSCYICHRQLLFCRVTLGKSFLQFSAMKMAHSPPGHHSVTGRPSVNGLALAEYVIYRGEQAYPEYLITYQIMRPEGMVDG

Structure (SMILES) | IC50 ([1]; Homo sapiens, HEK293, 16 h) | IC50 ([2]; Homo sapiens) | IC50 (TNKS2) | IC50 [1] | IC50 [2]
COCC(C)NC(=O)c1nc[nH]c1C(=O)N[C@H]1CC[C@@]2(CCN(c3ccc(F)cc3Cl)C2=O)CC1 (mixture of isomers) [Example 164, N^5-[(trans)-2-(2-chloro-4-fluorophenyl)-1-oxo-2-azaspiro[4.5]dec-8-yl]-N^4-(1-methoxypropan-2-yl)-1H-imidazole-4,5-dicarboxamide] | 0.0092 µM | ≥ 50 µM | 0.028 µM |  | 
Cc1c(C(C)N(C)C)cnc2c(C(=O)N[C@H]3CC[C@H](C(=O)Nc4ccc(F)cc4Cl)CC3)cnn12 (single isomer, unassigned) [Example 56, N-{trans-4-[(2-chloro-4-fluorophenyl)carbamoyl]cyclohexyl}-6-[1-(dimethylamino)ethyl]-7-methylpyrazolo[1,5-a]pyrimidine-3-carboxamide] |  | ≥ 50 µM | 0.37 µM | 0.99 µM | 
Cc1c(C(C)N(C)C)cnc2c(C(=O)N[C@H]3CC[C@H](C(=O)Nc4ccc(F)cc4Cl)CC3)cnn12 (single isomer, unassigned) [Example 57, N-{trans-4-[(2-chloro-4-fluorophenyl)carbamoyl]cyclohexyl}-6-[1-(dimethylamino)ethyl]-7-methylpyrazolo[1,5-a]pyrimidine-3-carboxamide] |  |  | 0.16 µM | 0.31 µM | ≥ 50 µM
CNC(=O)c1nc[nH]c1C(=O)N[C@H]1CC[C@H](C(=O)Nc2cc(F)c(F)cc2Cl)CC1 [Example 3, N^5-{trans-4-[(2-chloro-4,5-difluorophenyl)carbamoyl]cyclohexyl}-N^4-methyl-1H-imidazole-4,5-dicarboxamide] | 0.013 µM | ≥ 50 µM | 0.0081 µM |  | 
O=C(NCCN1CCCCC1)c1nc[nH]c1C(=O)N[C@H]1CC[C@H](C(=O)Nc2cc(F)c(F)cc2Cl)CC1 [Example 4, N^5-{trans-4-[(2-chloro-4,5-difluorophenyl)carbamoyl]cyclohexyl}-N^4-[2-(piperidin-1-yl)ethyl]-1H-imidazole-4,5-dicarboxamide] | 0.01 µM | ≥ 50 µM | 0.0021 µM |  | 
CNC(=O)c1nc[nH]c1C(=O)N[C@H]1CC[C@H](C(=O)Nc2cc(OC)c(OC)cc2Cl)CC1 [Example 5, N^5-{trans-4-[(2-chloro-4,5-dimethoxyphenyl)carbamoyl]cyclohexyl}-N^4-methyl-1H-imidazole-4,5-dicarboxamide] | 0.19 µM | ≥ 50 µM | 0.11 µM |  | 
CNC(=O)c1nc[nH]c1C(=O)N[C@H]1CC[C@H](C(=O)Nc2c(F)cc(F)cc2Cl)CC1 [Example 6, N^5-{trans-4-[(2-chloro-4,6-difluorophenyl)carbamoyl]cyclohexyl}-N^4-methyl-1H-imidazole-4,5-dicarboxamide] | 0.055 µM | ≥ 50 µM | 0.06 µM |  | 
CNC(=O)c1nc[nH]c1C(=O)N[C@H]1CC[C@H](C(=O)Nc2ccc(F)cc2Br)CC1 [Example 7, N^5-{trans-4-[(2-bromo-4-fluorophenyl)carbamoyl]cyclohexyl}-N^4-methyl-1H-imidazole-4,5-dicarboxamide] | 0.03 µM | ≥ 50 µM | 0.027 µM |  | 
CNC(=O)c1nc[nH]c1C(=O)N[C@H]1CC[C@H](C(=O)Nc2ccc(F)cc2)CC1 [Example 8, N^5-{trans-4-[(4-fluorophenyl)carbamoyl]cyclohexyl}-N^4-methyl-1H-imidazole-4,5-dicarboxamide] | 2.1 µM | ≥ 50 µM | 2.3 µM |  | 
CNC(=O)c1nc[nH]c1C(=O)N[C@H]1CC[C@H](C(=O)Nc2ccc(C)cc2Cl)CC1 [Example 9, N^5-{trans-4-[(2-chloro-4-methylphenyl)carbamoyl]cyclohexyl}-N^4-methyl-1H-imidazole-4,5-dicarboxamide] | 0.18 µM | ≥ 50 µM | 0.11 µM |  | 
CNC(=O)c1[nH]cnc1C(=O)NC1CCC(C(=O)Nc2ccc(F)cc2Cl)CC1OC (stereo not drawn) [Example 36, N^4-{(1α,2β,4β)-4-[(2-chloro-4-fluorophenyl)carbamoyl]-2-methoxycyclohexyl}-N^5-methyl-1H-imidazole-4,5-dicarboxamide] |  |  | > 10 µM | 4.9 µM | ≥ 50 µM
CNC(=O)c1[nH]cnc1C(=O)NC1CCC(C(=O)Nc2ccc(F)cc2Cl)CC1OC (stereo not drawn) [Example 37, N^4-{(1α,2β,4β)-4-[(2-chloro-4-fluorophenyl)carbamoyl]-2-methoxycyclohexyl}-N^5-methyl-1H-imidazole-4,5-dicarboxamide] |  |  | > 10 µM | 43 µM | ≥ 50 µM
O=C(NCCC1CC1)c1nc[nH]c1C(=O)N[C@H]1CC[C@H](C(=O)Nc2cc(N3CCOCC3)ccc2Cl)CC1 [Example 93, N^5-(trans-4-{[2-chloro-5-(morpholin-4-yl)phenyl]carbamoyl}cyclohexyl)-N^4-(2-cyclopropylethyl)-1H-imidazole-4,5-dicarboxamide] | 1.5 µM | 12 µM | 1.6 µM |  | 
CC(C)(O)CNC(=O)c1nc[nH]c1C(=O)N[C@H]1CC[C@H](C(=O)Nc2cc(N3CCOCC3)ccc2Cl)CC1 [Example 94, N^5-(trans-4-{[2-chloro-5-(morpholin-4-yl)phenyl]carbamoyl}cyclohexyl)-N^4-(2-hydroxy-2-methylpropyl)-1H-imidazole-4,5-dicarboxamide] | 0.61 µM | ≥ 50 µM | 1.6 µM |  | 
O=C(NCC(F)(F)F)c1nc[nH]c1C(=O)N[C@H]1CC[C@H](C(=O)Nc2cc(N3CCOCC3)ccc2Cl)CC1 [Example 95, N^5-(trans-4-{[2-chloro-5-(morpholin-4-yl)phenyl]carbamoyl}cyclohexyl)-N^4-(2,2,2-trifluoroethyl)-1H-imidazole-4,5-dicarboxamide] | 2.1 µM | 39 µM | 4.3 µM |  | 
CNC(=O)c1nc[nH]c1C(=O)N[C@H]1CC[C@H](C(=O)Nc2cnccc2Cl)CC1 [Example 96, N^5-{trans-4-[(4-chloropyridin-3-yl)carbamoyl]cyclohexyl}-N^4-methyl-1H-imidazole-4,5-dicarboxamide] | 0.022 µM | 18 µM | 0.028 µM |  | 
O=C(NCC1CCCO1)c1nc[nH]c1C(=O)N[C@H]1CC[C@H](C(=O)Nc2cnccc2Cl)CC1 (stereo partly drawn) [Example 97, N^5-{trans-4-[(4-chloropyridin-3-yl)carbamoyl]cyclohexyl}-N^4-(tetrahydrofuran-2-ylmethyl)-1H-imidazole-4,5-dicarboxamide] | 0.034 µM | 18 µM | 0.039 µM |  | 
COC(C)(C)CNC(=O)c1nc[nH]c1C(=O)N[C@H]1CC[C@H](C(=O)Nc2cnccc2Cl)CC1 [Example 98, N^5-{trans-4-[(4-chloropyridin-3-yl)carbamoyl]cyclohexyl}-N^4-(2-methoxy-2-methylpropyl)-1H-imidazole-4,5-dicarboxamide] | 0.57 µM | ≥ 50 µM | 0.039 µM |  | 
COCC(C)NC(=O)c1nc[nH]c1C(=O)N[C@H]1CC[C@H](C(=O)Nc2cnccc2Cl)CC1 (stereo partly drawn) [Example 99, N^5-{trans-4-[(4-chloropyridin-3-yl)carbamoyl]cyclohexyl}-N^4-(1-methoxypropan-2-yl)-1H-imidazole-4,5-dicarboxamide] | 0.051 µM | 20 µM | 0.11 µM |  | 
Cc1cc(NC(=O)[C@H]2CC[C@H](NC(=O)c3[nH]cnc3C(=O)NCC(C)(C)O)CC2)c(Cl)cc1F [Example 100, N^5-{trans-4-[(2-chloro-4-fluoro-5-methylphenyl)carbamoyl]cyclohexyl}-N^4-(2-hydroxy-2-methylpropyl)-1H-imidazole-4,5-dicarboxamide] | 0.2 µM | 39 µM | 0.11 µM |  | 
